The Ki is the equilibrium dissociation constant of an inhibitor or competing ligand from its target.

Nine molecules from US6376488B1, “Benzoxazine α-1 adrenergic compounds” (Abbott Laboratories, priority 2000, dated 2002) can be followed below.

The target of this experiment is T1, α1d (rat) adrenoreceptor (Rattus norvegicus, UniProt P23944).
T1 sequence (P23944 1-561): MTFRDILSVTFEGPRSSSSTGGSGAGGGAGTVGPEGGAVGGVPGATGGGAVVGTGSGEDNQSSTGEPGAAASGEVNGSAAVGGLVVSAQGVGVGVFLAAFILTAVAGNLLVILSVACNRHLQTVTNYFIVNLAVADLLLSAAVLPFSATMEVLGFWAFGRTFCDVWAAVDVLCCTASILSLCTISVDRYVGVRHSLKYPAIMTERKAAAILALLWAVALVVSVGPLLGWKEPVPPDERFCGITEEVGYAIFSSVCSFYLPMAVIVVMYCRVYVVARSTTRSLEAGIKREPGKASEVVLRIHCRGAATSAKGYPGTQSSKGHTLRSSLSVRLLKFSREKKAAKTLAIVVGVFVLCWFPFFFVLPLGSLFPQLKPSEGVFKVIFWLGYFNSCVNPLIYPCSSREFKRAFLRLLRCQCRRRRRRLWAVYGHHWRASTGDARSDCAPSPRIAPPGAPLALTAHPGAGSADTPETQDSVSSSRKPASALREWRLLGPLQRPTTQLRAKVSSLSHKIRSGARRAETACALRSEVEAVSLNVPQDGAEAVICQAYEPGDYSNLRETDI
The experiment is described as follows: [3H]-prazosin radioligand binding, cloned α1d (rat) adrenoreceptor in LTK cells. The following applies: cloned receptor in LTK cell membranes, [3H]prazosin 0.2 nM. The protocol:
Representative compounds of the invention were evaluated for α adrenoreceptor binding affinity in vitro using [^3H]-prazosin as the radioligand and following four cloned α1, adrenoreceptors expressed in LTK cells: α1a (rat), α1a (bovine), α1b : (hampster), and α1d (rat).
The cDNA clones encoding the α1, adrenoreceptors were obtained from TULCO (Triangle Universities Licensing Consortium, Research Triangle Park, N.C.) and inserted into the eukaryotic expression vector SnaB30. In this vector, expression of the adrenoreceptor gene is under the transcriptional control of an SV40 early promoter. Positive drug selection is provided by a neomycin-resistance gene. Mouse fibroblast cells (LTK) were transfected with the α1 expression plasmids and grown in Dulbecco's modified Eagle's medium (DMEM) containing 10% fetal calf serum and 30 μM G418. Stable G418-resistant parental lines were generated with successful expression of adrenoreceptor protein monitored using radioligand binding techniques. Stable single cell clones derived from the parental lines were screened in adrenoreceptor binding assays to identify clones having high adrenoreceptor density. Roller bottle cultures of the cloned lines were used to provide cell membranes for subsequent adrenoreceptor binding characterization studies. A cell line containing the SnaB30 vector expressing the human erythropoietin gene served as a negative control.
For adrenoreceptor binding assays, large scale membrane preparations were utilized in which 6 million cells were seeded into small (450 cm^2) Coming tissue culture roller bottles. DMEM (200 mL) containing 10% fetal calf serum and 300 μM G418 were added to each roller bottle. A 95% air/5% CO2 gas mixture (sterile) was injected into each roller bottle prior to sealing, and the bottles were then incubated at 37° C. on a roller rack for 5 days. Cells were refed with fresh medium after 3 days in culture.
On the fifth day of culture, growth medium was removed from cells grown in roller bottles, and the cells were washed twice with PBS (Sigma, 120 mM NaCl, 2.7 mM KCl, 10 mM Na2HPO4-NaH2PO4, pH=7.4). Cells were detached from the roller bottles by incubating for 15 minutes at 37° C. in a Tris-EDTA solution (10 mM Tris, 100 mM NaCl, 1 mM EDTA, pH=7.4). The cell suspension from each roller bottle was decanted into tared centrifuge tubes and kept on ice. An aliquot of each cell suspension was generally taken for cell counting. Cells were centrifuged at 3000×G for 5 minutes at 2-4° C., washed with PBS and recentrifuged. The supernatant was decanted, and the pellet was weighed to determine the wet weight of cells. Cells were washed a final time in 40 vol 5 mM Tris-HCl, 5 mM EDTA, pH=7.7 and centrifuged at 40,000×G for 10 minutes (“vol” indicates volume/weight, e.g., a “vol” of 40 would indicate that the one gram of cells were washed with 40 mls of buffer). Cells were homogenized in of 50 mM Tris-HCl, 5 mM EDTA (pH=7.4) (10 mL) and diluted to 40 mL/tube. Homogenates were centrifuged at 40,000×G for 10 minutes. The supernatant was decanted and the pellets rehomogenized in 50 mM Tris-HCl (pH=7.4) and centrifuged as before. The supernatant was decanted and the homogenate was resuspended in 6.25 volumes (per gram wet weight) of 50 mM Tris-HCl and aliquots of the pooled homogenates frozen in liquid N2 and,stored at −70° C. until the time of assay.
Receptor binding assays for α1 adrenoreceptors were performed essentially as described by Greengrass and Bremner (Eur. J. Pharmacol. 55: 323-326 (1979)). […] Following equilibration, bound radioligand was separated from free on GF/B filters (presoaked in 0.5% polyethyleneimine) using ither a Brandel or Packard cell harvester. Radioactivity was determined by standard liquid scintillation techniques. Data were analyzed as previously described (Hancock, A. A., Kyncl, J. J., Martin, Y. C. and DeBemardis, J. F., J. Receptor Res. 8: 23-46 (1988)). The in Table 1.

Where a name gives a salt, the structure may show the parent alone.

`COc1cccc2c1N1CCN(CCCCn3c(=O)[nH]c4c(sc5cccnc54)c3=O)CC1CO2` (single isomer, unassigned; (+)) [Example 14, (+) 3-[4-(10-methoxy-1,2,4a,5-tetrahydropyrazino[2,1-c][1,4]benzoxazin-3(4H)-yl)butyl]pyido [2′,3′:4,5]thieno[3,2-d]pyrimidine-2,4(1H,3H)-dione trihydrochloride]: the Ki is 2.16 nM.

On to `Cl.Cl.O=c1[nH]c2c(sc3ncccc32)c(=O)n1CCCCN1CCN2c3ccccc3OCC2C1` (single isomer, unassigned; (-)) [Example 6, (−) 3-[4-(1,2,4a,5-tetrahydropyrazino[2,1-c][1,4]benzoxazin-3(4H)-yl)butyl]pyrido[3′, 2′:4,5]thieno[3,2-d]pyrimidine-2,4(1H,3H)-dione dihydrochloride], for which the Ki amounted to 16.9 nM. Molecule `COc1cccc2c1N1CCN(CCCn3c(=O)[nH]c4c(sc5cccnc54)c3=O)CC1CO2.Cl.Cl.Cl` (single isomer, unassigned; (+)) [Example 17, (+) 3-[3-(10-methoxy-1,2,4a,5-tetrahydropyrazino[2,1-c][1,4]benzoxazin-3(4H)-yl)propyl]pyrido[2′,3′:4,5]thieno[3,2-d]pyrimidine-2,4(1H,3H)-dione trihydrochloride] returned an inhibition constant (Ki) of 20.5 nM. `COc1cccc2c1N1CCN(CCn3c(=O)[nH]c4c(sc5cccnc54)c3=O)CC1CO2.Cl.Cl` (single isomer, unassigned; (-)) [Example 7, (−) 3-[2-(10methoxy-1,2,4a,5-tetrahydropyrazino[2,1-c][1,4]benzoxazin-3(4H)-yl)ethyl]pyrido[2′,3′:4,5]thieno[3,2-d]pyrimidine-2,4(1H,3H)-dione dihydrochloride]: the affinity, expressed as Ki, was 1.13 nM. As for `COc1cccc2c1N1CCN(CCCCn3c(=O)[nH]c4c(sc5ncccc54)c3=O)CC1CO2.Cl.Cl.Cl` (single isomer, unassigned; (+)) [Example 15, (+) 3-[4-(10-methoxy-1,2,4a,5-tetrahydropyrazino[2,1-c][1,4]benzoxazin-3(4H)-yl)butyl]pyrido[3′,2′:4,5]thieno[3,2-d]pyrimidine-2,4(1H,3H)-dione trihydrochloride], the Ki stood at 1.3 nM.

The molecule `COc1cccc2c1N1CCN(CCCCn3c(=O)[nH]c4c(sc5ncccc54)c3=O)CC1CO2` (single isomer, unassigned; (-)) [Example 11, (−) 3-[4-(10-methoxy-1,2,4a,5-tetrahydropyrazino[2,1-c][1,4]benzoxazin-3(4H)-yl)butyl]pyrido[3′,2′:4.5]thieno[3,2-d]pyrimidine-2,4(1H,3H)-dione trihydrochloride] had an inhibitory constant (Ki) of 0.427 nM. Then “(−) 3-[3-(10-methoxy-1,2,4a,5-tetrahydropyrazino[2,1-c][1,4]benzoxazin-3(4H)-yl)butyl]pyrido[2′,3′:4,5]thieno[3,2-d]pyrimidine-2,4(1H,3H)-dione trihydrochloride [Example 10]”, with 0.344 nM; and `COc1cccc2c1N1CCN(CCCn3c(=O)[nH]c4c(sc5cccnc54)c3=O)CC1CO2.Cl.Cl.Cl` (single isomer, unassigned; (-)) [Example 9, (−) 3-[3-(10-methoxy-1,2,4a,5-tetrahydropyrazino[2,1-c][1,4]benzoxazin-3(4H)-yl)propyl]pyrido[2′,3′:4,5]thieno[3,2-d]pyrimidine-2,4(1H, 3H)-dione trihydrochloride], with 1.28 nM.

As to `COc1cccc2c1N1CCN(CCn3c(=O)[nH]c4c(sc5ncc(Cl)nc54)c3=O)CC1CO2.Cl.Cl` (single isomer, unassigned; (+)) [Example 8, (+) 3-[2-(10-methoxy-1,2,4a,5-tetrahydropyrazino[2,1-c][1,4]benzoxazin-3(4H)-yl)ethyl]-8-chloropyrazino[2′,3′:4,5]thieno[3,2-d]pyrimidine-2,4(1H,3H)-dione dihydrochloride], affinity was put at a Ki of 5.08 nM.
